Results reported in patent US20200165194A1, “ADDITIVE COMPOSITION FOR CULTURE MEDIUM, ADDITIVE COMPOUND FOR CULTURE MEDIUM, AND METHOD FOR CULTURE OF CELLS OR TISSUE USING SAME” (NISSAN CHEMICAL CORPORATION, priority 2017, published 2020).
Like-named read-outs stand apart in the source and are kept apart here.

How the values were obtained:
Format in all cases: cell-based
plural animal cell lines = assay: Animal cell lines, summary over the cell lines (Experimental Example 15); conditions: animal cell lines under three-dimensional conditions
Excerpt: (§1) Various animal cell lines were precultured (single layer culture) as follows in respective media. Chinese hamster ovary-derived cell line CHO-K1 (manufactured by DS PHARMA BIO MEDICAL, 10% fetal bovine serum (FBS, manufactured by Corning)-containing Ham's F-12 medium (manufactured by Fujifilm Wako Pure Chemical Corporation)), Cercopithecus aethiops kidney epithelium-derived cell line Vero (purchased from JCRB cell bank, 5% FBS-containing Medium 199 medium (manufactured by Life Technologies)). The above-mentioned cells in the logarithmic growth phase were washed with PBS, a 0.25 w/v % trypsin-1 mmol/L EDTA (ethylenediaminetetraacetic acid) solution (manufactured by Fujifilm Wako Pure Chemical Corporation) was added, and adherent cells were detached by incubating at 37° C. for 3 min. Each medium was added and the mixture was centrifuged and resuspended in the same medium.
(§2) The aforementioned various animal cells were suspended in respective deacylated gellan gum-containing or not containing media (deacylated gellan gum concentration was 0.02 w/v % in Ham's F-12 medium, 0.015 w/v % in Medium 199 medium), and seeded in a 96 well low attachment U-bottom plate (manufactured by Corning, #4520, deacylated gellan gum-free medium), or a low attachment flat bottom plate (manufactured by Corning, #3474, deacylated gellan gum-containing medium) at a cell concentration of 700-2000 cells/90 μL/well (all 3D culture). […] The amount of each compound solution to be added was […]. As a control, a DMSO solution dissolved in a medium was added (DMSO final concentration 0.1%). […] When compared with the compound non-addition (control), one showing a value of not more than 119% as -, one showing a value of not less than 120% as ◯, and one showing a value of not less than 150% as ⊚ are shown in the twenty-third table and the twenty-fourth table.

[1] = tested on: Cercopithecus aethiops kidney epithelium-derived cell line Vero; assay: Animal cell lines, 3D culture, ATP assay (Experimental Example 15); conditions: for number of viable cells (RLU), relative value to control (100%): 4 days
Excerpt: as §1, §2

[2] = tested on: Bone marrow-derived human mesenchymal stem cells (BM-hMSC); assay: Human mesenchymal stem cell-2: 3D, EZSPHERE and 2D culture, ATP assay (Experimental Example 10); conditions: for viability at 1 µM / viability at 5 µM / viability at 10 µM / viability at 20 µM: Homo sapiens, Mesenchymal stem cells, 96 h, 4 days, non-addition = 100%
Method: Bone marrow-derived human mesenchymal stem cells (BM-hMSC, manufactured by PromoCell) were precultured by a single layer culture method (2D) using a mesenchymal stem cell proliferation medium (manufactured by PromoCell). In three-dimensional culture method (3D), hMSC was suspended in a medium composition added with deacylated gellan gum, and seeded in a […] flat bottom Ultr-low Attachment surface plate (manufactured by Corning Incorporated, #3474) at 6000 cells/90 μL/well. In the three-dimensional culture method using EZSPHERE (EZSPHERE), hMSC was suspended in a deacylated gellan gum-free medium composition, and seeded in a 96-well EZSPHERE plate (manufactured by AGC TECHNO GLASS CO., LTD., #4860-900) at 2000 cells/90 μL/well. In 2D, hMSC was suspended in a deacylated gellan gum-free medium composition, and seeded in a 96-well flat bottom plate (manufactured by Corning Incorporated, #3585) at 2000 cells/90 μL/well. […] As a control, DMSO was added at a final concentration of 0.1%.

[3] = tested on: Mouse embryonic fibroblast C3H10T1/2; assay: Fibroblast strain C3H10T1/2, 3D culture, ATP assay (Experimental Example 11); conditions: for number of viable cells (RLU), relative value to control (100%): C3H10T1/2, low attachment U-bottom plate, 4 days; for proliferation activity (in words): fibroblast under three-dimensional conditions
Method: Mouse embryonic fibroblast C3H10T1/2 (manufactured by DS PHARMA BIO MEDICAL) was cultured in a BME medium (manufactured by Thermo Fisher Scientific) containing 10 (v/v) % FBS (manufactured by Corning) and the L-glutamine-penicillin-streptomycin stabilizing solution (manufactured by Sigma-Aldrich). The above-mentioned cells in the logarithmic growth phase were washed with PBS, a 0.25 w/v % trypsin-1 mmol/L EDTA (ethylenediaminetetraacetic acid) solution (manufactured by Wako Pure Chemical Industries, Ltd.) was added, and the cells were detached by incubating at 37° C. for 3 min. Each medium was added, the mixture was centrifuged, and the supernatant was removed.
(§3) The aforementioned various cells were suspended in respective deacylated gellan gum-containing or not containing media (deacylated gellan gum concentration was 0.015 w/v %), and seeded in a 96 well low attachment U-bottom plate (manufactured by Corning, #4520, deacylated gellan gum-free medium) at a cell concentration of 700-2000 cells/90 μL/well (3D culture). […] The amount of each compound solution to be added was 10 μL/well. As a control, a DMSO solution dissolved in a medium was added (DMSO final concentration 0.1%). […] When compared with the compound no-addition (control), one showing a value of not more than 119% as -, one showing a value of not less than 120% as ◯, and one showing a value of not less than 150% as ⊚ are shown in the eighteenth table. Unperformed test is left blank.

[4] = tested on: a plurality of cancer cell lines; assay: Various human cancer cells-2, summary over the cell lines (Experimental Example 6); conditions: cancer cell lines under three-dimensional conditions
Method: Various human-derived cancer cells were precultured (single layer culture) in respective media shown below. […] The above-mentioned cells in the logarithmic growth phase were washed with PBS, a 0.25 w/v % trypsin-1 mmol/L EDTA (ethylenediaminetetraacetic acid) solution (manufactured by Wako Pure Chemical Industries, Ltd.) was added, and adherent cells were detached by incubating at 37° C. for 1-5 min. Each medium was added and the mixture was centrifuged. After resuspension in the same medium, each cell was recovered.
as §3, with “gum-free medium), or a low attachment flat bottom plate (manufactured by Corning, #3474, deacylated gellan gum-containing” for “gum-free”, “700-12000” for “700-2000”, “(all 3D” for “(3D”, “eleventh table and the twelfth” for “eighteenth”

[5] = low attachment U-bottom plate, 5 μM
[6] = low attachment U-bottom plate, 10 μM
[7] = low attachment flat bottom plate (deacylated gellan gum-containing medium), 5 μM
[8] = low attachment flat bottom plate (deacylated gellan gum-containing medium), 10 μM
[9] = read-out: relative value of RLU (number of viable cells), BM-hMSC, 2D
[10] = read-out: relative value of RLU (number of viable cells), BM-hMSC, 3D (deacylated gellan gum)
[11] = read-out: relative value of RLU (number of viable cells), BM-hMSC, EZSPHERE plate
[12] = three-dimensional cell culture conditions
[13] = two-dimensional cell culture conditions
[14] = BM-hMSC, 2D, read-out: relative value of RLU (number of viable cells)
[15] = BM-hMSC, 3D (deacylated gellan gum), read-out: relative value of RLU (number of viable cells)
[16] = BM-hMSC, EZSPHERE plate, read-out: relative value of RLU (number of viable cells)

Question: `CCC(=NNC(=O)C(CC)Nc1ccccc1)c1ccc(O)c(C)c1O` (centres unmarked) [k-1:H-7] was tested. Which “proliferation activity (in words)” value (plural animal cell lines) did it give?
Answer: promoted proliferation activity in plural animal cell lines

Question: And the “number of viable cells (RLU), relative value to control (100%)” value (from here on “number … relative value to control (100%)”) [1, 5]?
Answer: ⊙

Question: What about the “number … relative value to control (100%)” value [1, 6] of the same molecule?
Answer: ⊙

Question: What about the “number … relative value to control (100%)” value [1, 7] of the same molecule?
Answer: ⊙

Question: What about the “number … relative value to control (100%)” value [1, 8] of the same molecule?
Answer: ⊙

Question: `CC/C(=N\NC(=O)NCc1cccc(O)c1)c1ccc(O)c(C)c1O` [k-1:J-1] was tested. Which viability at 1 µM [2, 9] did it give?
Answer: 107%

Question: What about the viability at 5 µM [2, 9] of the same molecule?
Answer: 121%

Question: What about the viability at 10 µM [2, 9] of the same molecule?
Answer: 146%

Question: What about the viability at 20 µM [2, 9] of the same molecule?
Answer: 157%

Question: And the viability at 1 µM [2, 10]?
Answer: 132%

Question: And the viability at 5 µM [2, 10]?
Answer: 330%

Question: What about the viability at 10 µM [2, 10] of the same molecule?
Answer: 579%

Question: And the viability at 20 µM [2, 10]?
Answer: 773%

Question: And the viability at 1 µM [2, 11]?
Answer: 149%

Question: What about the viability at 5 µM [2, 11] of the same molecule?
Answer: 241%

Question: And the viability at 10 µM [2, 11]?
Answer: 321%

Question: And the viability at 20 µM [2, 11]?
Answer: 231%

Question: What about the “proliferation activity (in words)” value [2, 12] of the same molecule?
Answer: promoted proliferation activity of BM-hMSC

Question: What about the “proliferation activity (in words)” value [2, 13] of the same molecule?
Answer: promoted proliferation activity of hMSC

Question: And the “proliferation activity (in words)” value (plural animal cell lines)?
Answer: promoted proliferation activity in plural animal cell lines

Question: And the “number … relative value to control (100%)” value ([3]; 1 μM)?
Answer: ⊙

Question: What about the “proliferation activity (in words)” value [3] of the same molecule?
Answer: promoted proliferation activity in fibroblast

Question: And the “proliferation activity (in words)” value [4]?
Answer: promoted proliferation activity in a plurality of cancer cell lines

Question: And the viability at 5 µM ([1]; Chlorocebus sabaeus, 96 h, read-out: number of viable cells (RLU), relative value to control (100%))?
Answer: 120 to 150%

Question: What about the “number … relative value to control (100%)” value [1, 5] of the same molecule?
Answer: ⊙

Question: What about the “number … relative value to control (100%)” value [1, 6] of the same molecule?
Answer: ⊙

Question: And the “number … relative value to control (100%)” value [1, 8]?
Answer: ⊙

Question: With `CC/C(=N\NC(=O)C(C)Nc1ccccc1)c1ccc(O)c(C)c1O` (centres unmarked) [k-1:B-1] as the molecule, how does the viability at 1 µM [2, 14] read?
Answer: 109%

Question: And the viability at 5 µM [2, 14]?
Answer: 125%

Question: And the viability at 10 µM [2, 14]?
Answer: 158%

Question: And the viability at 20 µM [2, 14]?
Answer: 164%

Question: And the viability at 1 µM [2, 15]?
Answer: 139%

Question: What about the viability at 5 µM [2, 15] of the same molecule?
Answer: 298%

Question: What about the viability at 10 µM [2, 15] of the same molecule?
Answer: 418%

Question: And the viability at 20 µM [2, 15]?
Answer: 420%

Question: And the viability at 1 µM [2, 16]?
Answer: 154%

Question: And the viability at 5 µM [2, 16]?
Answer: 247%

Question: What about the viability at 10 µM [2, 16] of the same molecule?
Answer: 297%

Question: And the viability at 20 µM [2, 16]?
Answer: 278%

Question: What about the “proliferation activity (in words)” value [2, 12] of the same molecule?
Answer: promoted proliferation activity of BM-hMSC

Question: And the “proliferation activity (in words)” value [2, 13]?
Answer: promoted proliferation activity of hMSC

Question: What about the “proliferation activity (in words)” value (plural animal cell lines) of the same molecule?
Answer: promoted proliferation activity in plural animal cell lines

Question: What about the “number … relative value to control (100%)” value ([3]; 1 μM) of the same molecule?
Answer: ⊙

Question: And the “number … relative value to control (100%)” value ([3]; 5 μM)?
Answer: ⊙

Question: And the “proliferation activity (in words)” value [3]?
Answer: promoted proliferation activity in fibroblast

Question: What about the “proliferation activity (in words)” value [4] of the same molecule?
Answer: promoted proliferation activity in a plurality of cancer cell lines

Question: What about the “number … relative value to control (100%)” value [1, 5] of the same molecule?
Answer: ⊙

Question: What about the “number … relative value to control (100%)” value [1, 6] of the same molecule?
Answer: ⊙

Question: What about the “number … relative value to control (100%)” value [1, 7] of the same molecule?
Answer: ⊙

Question: What about the “number … relative value to control (100%)” value [1, 8] of the same molecule?
Answer: ⊙
